The record followed here is US4331597A, “Penicillin compounds” (Meiji Seika Kaisha, Ltd., priority 1979, dated 1982).

What all share (experiment): Minimum inhibitory concentration test, agar dilution method (plate)
Holding throughout (format): cell-based
(In general: In agar dilution the substance is mixed into plates at graded concentrations.)

The subject of one experiment is Proteus vulgaris OX19. The protocol: (§1) Antimicrobial test (i.e., minimum inhibitory concentration test) on compounds obtained according to this invention was conducted according to the Japan chemotherapy method, using Apalcillin (PC-904) for comparison purposes.
(§2) Minimum Inhibitory Concentration(γ/ml)
(§3) in Agar Dilution Method (Plate)

Experiment [1] concerns Pseudomonas aeruginosa E-2. The conditions noted are these: E2. The protocol: as §1, §2, §3
Experiment [2] has as its system Klebsiella pneumoniae GN69. How it is done:
as §1, §2, §3

Experiment [3] has as its system Streptococcus faecalis ATCC6633. As to conditions: Enterococcus faecalis. How it is done:
as §1, §2, §3

Experiment [4] relates to Pseudomonas aeruginosa M-0002. The conditions noted are these: M0002. How it is done:
as §1, §2, §3

Experiment [5] relates to Serratia species GN629 (CSase). The protocol: as §1, §2, §3
The test system of experiment [6] is Citrobacter freundii GN346 (CSase). How it is done:
as §1, §2, §3

For experiment [7], the system named is Staphylococcus aureus Smiths-424. As to conditions: SMITHS424. How it is done:
as §1, §2, §3

Experiment [8] relates to Pseudomonas maltophilia 602. As to conditions: Stenotrophomonas maltophilia. The protocol: as §1, §2, §3
The test system of experiment [9] is Pseudomonas capacia M-0501. As to conditions: M0501. How it is done:
as §1, §2, §3

For experiment [10], the system named is Staphylococcus aureus 209PJC-1. As to conditions: 209PJC1. The protocol: as §1, §2, §3
Experiment [11] relates to Proteus morganii 1510 (CSase). The conditions noted are these: Morganella morganii. The protocol:
as §1, §2, §3

For experiment [12], the system named is Serratia marcescens No. 1. How it is done: as §1, §2, §3
Experiment [13] has as its system Pseudomonas cepacia M-0513. As to conditions: Burkholderia cepacia, M0513. The protocol: as §1, §2, §3
Another experiment relates to Escherichia coli GN206. How it is done:
as §1, §2, §3

The next experiment deals with Escherichia coli 255. How it is done: as §1, §2, §3

Converted amounts (≈) assume the structure as drawn. Counter-ions that a name gives are not always drawn.

The term MIC denotes the lowest concentration that inhibits growth of the organism. As for `COc1ccc(COc2ccc(-c3ccc(C(=O)N[C@@H](C(=O)N[C@@H]4C(=O)N5[C@@H]4SC(C)(C)[C@@H]5C(=O)O)c4ccc(O)cc4)c(=O)[nH]3)cc2OC)cc1OC` [Example 3, 6-[4-(3,4-dimethoxybenzyloxy)-3-methoxyphenyl]-1,2-dihydro-2-oxonicotinyl amoxycillin], the MIC with Proteus vulgaris OX19 turned out to be 0.39 µg/mL (≈ 0.514 µM); in experiment [1], 6.25 µg/mL (≈ 8.24 µM); in experiment [2] it was 25 µg/mL (≈ 32.9 µM); in experiment [3], 3.13 µg/mL (≈ 4.12 µM); in [4] it was 3.13 µg/mL (≈ 4.12 µM); in experiment [5], 6.25 µg/mL (≈ 8.24 µM). For the same compound, the MIC in [6] is 1.56 µg/mL (≈ 2.06 µM); in experiment [7], 0.2 µg/mL (≈ 0.264 µM); in experiment [8], 25 µg/mL (≈ 32.9 µM); in [9], 3.13 µg/mL (≈ 4.12 µM); in experiment [10], 0.39 µg/mL (≈ 0.514 µM); in experiment [11], 50 µg/mL (≈ 65.9 µM). The MIC stood at 1.56 µg/mL (≈ 2.06 µM) in experiment [12], 3.13 µg/mL (≈ 4.12 µM) in experiment [13], 1.56 µg/mL (≈ 2.06 µM) against Escherichia coli GN206 and 6.25 µg/mL (≈ 8.24 µM) with Escherichia coli 255.
Consider `CC1(C)S[C@@H]2[C@H](NC(=O)[C@H](NC(=O)c3cnc4cccnc4c3O)c3ccccc3)C(=O)N2[C@H]1C(=O)O` [PC-904, reference compound], for which the MIC was found to be 0.39 µg/mL (≈ 0.748 µM) with Proteus vulgaris OX19; 1.56 µg/mL (≈ 2.99 µM) in experiment [1]; 50 µg/mL (≈ 95.9 µM) in experiment [2]; 6.25 µg/mL (≈ 12 µM) in [3]; 0.78 µg/mL (≈ 1.5 µM) in experiment [4]; 25 µg/mL (≈ 47.9 µM) in experiment [5]. Further, the minimal inhibitory concentration (MIC) in experiment [6] is 12.5 µg/mL (≈ 24 µM); in [7] it was 0.39 µg/mL (≈ 0.748 µM); in [8], 50 µg/mL (≈ 95.9 µM); in [9], 12.5 µg/mL (≈ 24 µM); in [10], 0.39 µg/mL (≈ 0.748 µM); in experiment [11], 100 µg/mL (≈ 192 µM). Moreover, the MIC in [12] came to 1.56 µg/mL (≈ 2.99 µM); in experiment [13], 25 µg/mL (≈ 47.9 µM); against Escherichia coli GN206, 25 µg/mL (≈ 47.9 µM); with Escherichia coli 255 it was 50 µg/mL (≈ 95.9 µM).
As for `COc1ccc(-c2ccc(C(=O)N[C@@H](C(=O)N[C@@H]3C(=O)N4[C@@H]3SC(C)(C)[C@@H]4C(=O)O)c3ccc(O)cc3)c(=O)[nH]2)cc1OC` [Example 1, sodium salt of 6-(3,4-dimethoxyphenyl)-1,2-dihydro-2-oxonicotinylamoxycillin], the MIC in the experiment with Proteus vulgaris OX19 was found to be 0.39 µg/mL; in experiment [1], 3.13 µg/mL; in experiment [2] it was 25 µg/mL; in experiment [3] it was 3.13 µg/mL; in experiment [4], 0.78 µg/mL; in [5], 6.25 µg/mL. Further, the MIC is 6.25 µg/mL in [6]; 0.39 µg/mL in experiment [7]; 12.5 µg/mL in [8]; 12.5 µg/mL in experiment [9]; 0.39 µg/mL in experiment [10]; 100 µg/mL in experiment [11]. Besides, the MIC in experiment [12] stood at 0.78 µg/mL; in experiment [13] it was 12.5 µg/mL; in the experiment on Escherichia coli GN206, 3.13 µg/mL; with Escherichia coli 255, 12.5 µg/mL.
